In ChEMBL document CHEMBL1201862, “PubChem BioAssay data set” (2004):
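Grown in 96-well plates, cells were treated for 48 hours with each compound at five concentrations. Insufficient inhibition: endpoint recorded as highest concentration tested. GI50: concentration for 50% inhibition of growth.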 Active and inactive are the calls of the source. No stated cut-off is given here; in the data, active = GI50 up to about 1.1 µM and inactive = higher.

Key:
Assay in all cases: NCI anticancer screen, dose series, 48 h
HL-60 = test system: HL-60
SK-OV-3 = test system: SK-OV-3
TK-10 = test system: TK-10
SW-620 = test system: SW-620
SF-539 = test system: SF-539
OVCAR-3 = test system: OVCAR-3
SF-295 = test system: SF-295
OVCAR-5 = test system: OVCAR-5
ACHN = test system: ACHN
HCC 2998 = test system: HCC 2998
RPMI-8226 = test system: RPMI-8226
SNB-75 = test system: SNB-75
SR = test system: SR
SK-MEL-28 = test system: SK-MEL-28
COLO 205 = test system: COLO 205
UO-31 = test system: UO-31
U-251 = test system: U-251
UACC-62 = test system: UACC-62
IGROV-1 = test system: IGROV-1
HOP-62 = test system: HOP-62

Row | Structure (SMILES) | GI50 (HL-60) | GI50 (SK-OV-3) | GI50 (TK-10) | GI50 (SW-620) | GI50 (SF-539) | GI50 (OVCAR-3) | GI50 (SF-295) | GI50 (OVCAR-5) | GI50 (ACHN) | GI50 (HCC 2998) | GI50 (RPMI-8226) | GI50 (SNB-75) | GI50 (SR) | GI50 (SK-MEL-28) | GI50 (COLO 205) | GI50 (UO-31) | GI50 (U-251) | GI50 (UACC-62) | GI50 (IGROV-1) | GI50 (HOP-62)
1 | CCc1cccc(C)c1NC(=O)CCc1nnc(SC)o1 | > 100 µM (inactive) | > 100 µM (inactive) | > 100 µM (inactive) | > 100 µM (inactive) | > 100 µM (inactive) | > 100 µM (inactive) | > 100 µM (inactive) | > 100 µM (inactive) | > 100 µM (inactive) | > 100 µM (inactive) | > 100 µM (inactive) | > 79.4 µM (inactive) | 0.622 µM (active) | > 100 µM (inactive) | > 100 µM (inactive) | > 100 µM (inactive) | > 100 µM (inactive) | > 100 µM (inactive) | > 100 µM (inactive) | > 100 µM (inactive)
2 | CC1(C)OC[C@@H](C[C@H](O)COCc2ccccc2)O1 | > 100 µM (inactive) | > 100 µM (inactive) | > 100 µM (inactive) | > 100 µM (inactive) | > 100 µM (inactive) | > 100 µM (inactive) | > 100 µM (inactive) | > 100 µM (inactive) | > 100 µM (inactive) | > 100 µM (inactive) | > 100 µM (inactive) | > 100 µM (inactive) | > 100 µM (inactive) | > 100 µM (inactive) | > 100 µM (inactive) | > 100 µM (inactive) | > 100 µM (inactive) | > 100 µM (inactive) | > 100 µM (inactive) | > 100 µM (inactive)
3 | O=C1C=C(Nc2ccc(Br)cc2)c2ccccc2/C1=N/O | 13.2 µM (inactive) | 12.9 µM (inactive) | 9.1 µM (inactive) | 4.32 µM (inactive) | 9.48 µM (inactive) | 7.35 µM (inactive) | 1.54 µM (inactive) | 5.18 µM (inactive) | 7.31 µM (inactive) | 3.84 µM (inactive) | 11.6 µM (inactive) | 2.75 µM (inactive) | 9.38 µM (inactive) | 2 µM (inactive) | 4.78 µM (inactive) | 6.64 µM (inactive) | 4.93 µM (inactive) | 1.73 µM (inactive) | 32.6 µM (inactive) | 2.78 µM (inactive)
4 | COC(=O)N/N=C(/CCN1CCCC1)CC(c1ccccc1)c1c(O)c2ccccc2oc1=O (stereo not given) | > 100 µM (inactive) | > 100 µM (inactive) | > 100 µM (inactive) | > 100 µM (inactive) | > 100 µM (inactive) | > 100 µM (inactive) | > 100 µM (inactive) | > 100 µM (inactive) | > 100 µM (inactive) | > 100 µM (inactive) | > 100 µM (inactive) | 30.1 µM (inactive) | > 100 µM (inactive) | > 100 µM (inactive) | > 100 µM (inactive) | 61.4 µM (inactive) | > 100 µM (inactive) | 72.8 µM (inactive) | > 100 µM (inactive) | > 100 µM (inactive)
5 | CO[C@H]1CC[C@]2(C)C3=CC[C@@]4(C)C(CC[C@@H]4C(C)CC[C@@H](C)C(C)C)C(=CCC2C1)O3 (stereo not given in full) | > 25 µM (inactive) | > 25 µM (inactive) | > 25 µM (inactive) | > 25 µM (inactive) | > 25 µM (inactive) | > 25 µM (inactive) | > 25 µM (inactive) | > 25 µM (inactive) | > 25 µM (inactive) | > 25 µM (inactive) | > 25 µM (inactive) | > 25 µM (inactive) | > 25 µM (inactive) | > 25 µM (inactive) | > 25 µM (inactive) | > 25 µM (inactive) | > 25 µM (inactive) | > 25 µM (inactive) | > 25 µM (inactive) | > 25 µM (inactive)
6 | COC1=CC(=O)C2C(C1=O)C(c1ccccc1)[C@H]2C (stereo not given in full) | 38.9 µM (inactive) | > 100 µM (inactive) | > 100 µM (inactive) | 18.5 µM (inactive) | > 100 µM (inactive) | 87.1 µM (inactive) | > 100 µM (inactive) | > 100 µM (inactive) | 25.5 µM (inactive) | > 100 µM (inactive) | 35.9 µM (inactive) | 32.3 µM (inactive) | 31.6 µM (inactive) | > 100 µM (inactive) | > 100 µM (inactive) | > 100 µM (inactive) | > 100 µM (inactive) | > 100 µM (inactive) | > 100 µM (inactive) | > 100 µM (inactive)
